Key:
[1] = biological target: T1, human EP2 receptor (Homo sapiens, UniProt P43116); assay: Experiment of measuring EP2 antagonistic activity using cells expressing prostanoid receptor (cAMP); assay type: cell-based; conditions: CHO cells expressing human EP2 receptor; PGE2 10 nmol/L; cAMP quantified after 1 hour at room temperature; read-out: EP2_IC50
T1 construct: expressed in transfected cells; host or cells: CHO cells
Description: CHO cells on each of which a human EP2 receptor had been expressed were prepared in accordance with the method by Nishigaki et al, (FEBS Letters, vol. 364, pp. 339-341, 1995) and were then cryopreserved in CELLBANKER2 (Nippon Zenyaku Kogyo Co., Ltd.) at a concentration of 1.5×10^7 cells/mL/vial. The CHO cells thus prepared were used in the experiment. The cells were thawed, and were then suspended in an assay medium (D-PBS containing 1 mmol/L IBMX, 2 μmol/L Diclofenac) at a concentration of 5×10^5 cells/mL. PGE2 alone having a final concentration of 10 nmol/L or a solution (10 μL) containing the PGE2 and a test compound was added to the cell suspension (10 μL) to initiate the reaction. After the reaction was performed at room temperature for 1 hour, the amount of cAMP in the cells was quantified in accordance with the method described in cAMP Gs Dynamic kit (CISBIO).
The antagonistic activity (IC50 value) of a test compound was calculated as a percentage of suppression of the reaction at 10 nM, which was a concentration at which a submaximal cAMP production activity was observed when PGE2 alone was employed. In this manner, an IC50 value was determined.

[2] = system: mouse colorectal cancer cell line CT26; assay: Anti-tumor effect in allogenic transplantation model of mouse colorectal cancer cell line CT26; assay type: in vivo; conditions: female Balb/C mice, CT26 subcutaneous; 10 mg/kg per single dose, once on day-4, twice per day day-5 to day-25
Description: The anti-tumor effect of the compound of the present invention was evaluated in an allogenic transplantation model of CT26 that was a mouse colorectal cancer cell line. CT26 was cultured in a RPMI-1640 medium supplemented with 10 vol % of heat-inactivated fetal bovine serum (FBS), 100 units/mL of penicillin and 100 μg/mL of streptomycin in a CO2 incubator. On the day of transplantation, a culture supernatant was removed, CT26 was washed with a phosphate buffered saline (also abbreviated as “PBS”, hereinafter) and was then collected. The collected CT26 was suspended in PBS and was used as cells for transplantation. 300,000 cells for the transplantation were transplanted subcutaneously into female Balb/C mice (Charles River Laboratories Japan) on the right back. Four days after the transplantation, the mice were divided into two groups, i.e., a medium group and a compound A group, each including 10 cases. […] With respect to a tumor volume (mm^3), a shorter diameter and a longer diameter of a tumor were measured with an electronic caliper, and the tumor volume was calculated in accordance with mathematical formula 1 shown below. […]

T1 sequence (P43116 whole entry): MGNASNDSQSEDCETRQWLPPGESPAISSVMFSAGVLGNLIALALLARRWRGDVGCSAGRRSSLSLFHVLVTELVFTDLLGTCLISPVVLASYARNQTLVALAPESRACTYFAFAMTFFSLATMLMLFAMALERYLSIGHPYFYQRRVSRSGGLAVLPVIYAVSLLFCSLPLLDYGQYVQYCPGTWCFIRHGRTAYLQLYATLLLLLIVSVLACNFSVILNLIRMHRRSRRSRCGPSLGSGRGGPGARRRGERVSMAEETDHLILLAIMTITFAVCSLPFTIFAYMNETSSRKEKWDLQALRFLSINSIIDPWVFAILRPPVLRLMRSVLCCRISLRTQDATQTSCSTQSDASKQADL

| SMILES | IC50 [1] [nM] | tumor volumes on day-25 of the transplantation compared with medium-administered group [2] |
| --- | --- | --- |
| CC[C@H](C)n1c(CCCc2ccccc2)ccc1C(=O)Nc1cc(C)cc([C@H]2C[C@H]2C(=O)O)c1 (relative stereo) [Example 2-1, rel-(1R,2S)-2-{3-[({1-[(2S)-2-Butanyl]-5-(3-phenylpropyl)-1H-pyrrol-2-yl}carbonyl)amino]-5-methylphenyl}cyclopropanecarboxylic acid] | 5.4 | – |
| Cc1cc(OCCC2CC2)cc(C)c1C(=O)Nc1cc([C@H]2C[C@H]2C(=O)O)ccc1C(F)(F)F [Example 20-1, (1R,2S)-2-[3-{[4-(2-Cyclopropylethoxy)-2,6-dimethylbenzoyl]amino}-4-(trifluoromethyl)phenyl]cyclopropanecarboxylic acid] | 5 | – |
| Cc1cc(OCCc2ccccc2)cc(C)c1C(=O)Nc1cc([C@H]2C[C@H]2C(=O)O)ccc1C(F)(F)F (racemic) [Example 11, rel-(1R,2S)-2-[3-{[2,6-Dimethyl-4-(2-phenylethoxy)benzoyl]amino}-4-(trifluoromethyl)phenyl]cyclopropanecarboxylic acid] | 2.2 | – |
| Cc1cc(OCCc2ccccc2)cc(C)c1C(=O)Nc1cc([C@H]2C[C@H]2C(=O)O)c(Cl)cc1C(F)(F)F [Example 15, (1R,2S)-2-[2-Chloro-5-{[2,6-dimethyl-4-(2-phenylethoxy)benzoyl]amino}-4-(trifluoromethyl)phenyl]cyclopropanecarboxylic acid] | < 0.3 | – |
| Cc1cc(OCCc2cnn(C)c2)cc(C)c1C(=O)Nc1cc([C@H]2C[C@H]2C(=O)O)ccc1C(F)(F)F [Example 20, (1R,2S)-2-[3-({2,6-Dimethyl-4-[2-(1-methyl-1H-pyrazol-4-yl)ethoxy]benzoyl}amino)-4-(trifluoromethyl)phenyl]cyclopropanecarboxylic acid] | 28 | – |
| CC(C)n1c(CCCc2ccccc2)ccc1C(=O)Nc1cc([C@@H]2C[C@H]2C(=O)O)ccc1C(F)(F)F [Example 3-2, (1R,2R)-2-[3-({[1-Isopropyl-5-(3-phenylpropyl)-1H-pyrrol-2-yl]carbonyl}amino)-4-(trifluoromethyl)phenyl]cyclopropanecarboxylic acid] | 77 | – |
| CC[C@H](C)n1c(CCOCc2ccccc2)ccc1C(=O)Nc1cc([C@H]2C[C@H]2C(=O)O)ccc1C(F)(F)F [Example 8, (1R,2S)-2-{3-[({5-[2-(Benzyloxy)ethyl]-1-[(2S)-2-butanyl]-1H-pyrrol-2-yl}carbonyl)amino]-4-(trifluoromethyl)phenyl}cyclopropanecarboxylic acid] | 0.4 | – |
| Cc1cc(OCCc2ccccc2)cc(C)c1C(=O)Nc1cc([C@H]2CC[C@H]2C(=O)O)ccc1C(F)(F)F [Example 25, (1R,2S)-2-[3-{[2,6-Dimethyl-4-(2-phenylethoxy)benzoyl]amino}-4-(trifluoromethyl)phenyl]cyclobutanecarboxylic acid] | 2.2 | – |
| Cc1cc(OCCc2ccccc2)cc(C)c1C(=O)Nc1cc(C(C)CC(=O)O)ccc1C(F)(F)F (stereo not drawn) [Example 24-1, 3-[3-{[2,6-Dimethyl-4-(2-phenylethoxy)benzoyl]amino}-4-(trifluoromethyl)phenyl]butanoic acid] | 20 | – |
| CC[C@H](C)n1c(CCCc2ccccc2)ccc1C(=O)Nc1cc([C@H]2C[C@H]2C(=O)O)ccc1OC [Example 4, (1R,2S)-2-{3-[({1-[(2S)-2-Butanyl]-5-(3-phenylpropyl)-1H-pyrrol-2-yl}carbonyl)amino]-4-methoxyphenyl}cyclopropanecarboxylic acid] | 2.6 | – |
| CC(C)n1c(CCCc2ccccc2)ccc1C(=O)Nc1cc([C@@H]2C[C@@H]2C(=O)O)ccc1C(F)(F)F [Example 3-1, (1S,2R)-2-[3-({[1-Isopropyl-5-(3-phenylpropyl)-1H-pyrrol-2-yl]carbonyl}amino)-4-(trifluoromethyl)phenyl]cyclopropanecarboxylic acid] | 2.1 | – |
| Cc1cc(Oc2cncc(Cl)n2)cc(C)c1C(=O)Nc1cc([C@H]2C[C@H]2C(=O)O)ccc1C(F)(F)F [Example 21, (1R,2S)-2-[3-({4-[(6-Chloro-2-pyrazinyl)oxy]-2,6-dimethylbenzoyl}amino)-4-(trifluoromethyl)phenyl]cyclopropanecarboxylic acid] | 8.1 | – |
| CC[C@H](C)n1c(CCOc2cc(F)nc(Cl)c2)ccc1C(=O)Nc1cc([C@H]2C[C@H]2C(=O)O)ccc1C(F)(F)F [Example 10, (1R,2S)-2-[3-{[(1-[(2S)-2-Butanyl]-5-{2-[(2-chloro-6-fluoro-4-pyridinyl)oxy]ethyl}-1H-pyrrol-2-yl)carbonyl]amino}-4-(trifluoromethyl)phenyl]cyclopropanecarboxylic acid] | 0.3 | – |
| Cc1cc(OCCc2ccccc2)cc(C)c1C(=O)Nc1cc([C@H]2C[C@H]2C(=O)O)ccc1C(F)(F)F [Example 18, (1R,2S)-2-[3-{[2,6-Dimethyl-4-(2-phenylethoxy)benzoyl]amino}-4-(trifluoromethyl)phenyl]cyclopropanecarboxylic acid] | 0.9 | significantly smaller |
| CC[C@H](C)n1c(CCCc2ccccc2)ccc1C(=O)Nc1cc([C@@H]2C[C@@H]2C(=O)O)ccc1C(F)(F)F [Example 5, (1S,2R)-2-{3-[({1-[(2S)-2-Butanyl]-5-(3-phenylpropyl)-1H-pyrrol-2-yl}carbonyl)amino]-4-(trifluoromethyl)phenyl}cyclopropanecarboxylic acid] | 2.5 | – |
| CC[C@H](C)n1c(CCCc2ccccc2)ccc1C(=O)Nc1cc(C)cc([C@@H]2C[C@H]2C(=O)O)c1 (relative stereo) [Example 2-2, rel-(1R,2R)-2-{3-[({1-[(2S)-2-Butanyl]-5-(3-phenylpropyl)-1H-pyrrol-2-yl}carbonyl)amino]-5-methylphenyl}cyclopropanecarboxylic acid] | 33 | – |
| Cc1cc(CCCc2ccccc2)cc(C)c1C(=O)Nc1cc([C@H]2C[C@H]2C(=O)O)ccc1C(F)(F)F [Example 12, (1R,2S)-2-[3-{[2,6-Dimethyl-4-(3-phenylpropyl)benzoyl]amino}-4-(trifluoromethyl)phenyl]cyclopropanecarboxylic acid] | 1 | – |
| CCC(C)c1c(C(=O)Nc2cc([C@H]3C[C@H]3C(=O)O)ccc2C(F)(F)F)ccn1CCCc1ccccc1 (stereo partly drawn) [Example 34, (1R,2S)-2-[3-({[2-sec-Butyl-1-(3-phenylpropyl)-1H-pyrrol-3-yl]carbonyl}amino)-4-(trifluoromethyl)phenyl]cyclopropanecarboxylic acid] | < 0.3 | – |
| CCC(C)n1c(CCCc2ccccc2)ccc1C(=O)Nc1cc([C@H]2C[C@H]2C(=O)O)ccc1C(F)(F)F (relative stereo) [Example 1, rel-(1R,2S)-2-[3-({[1-sec-Butyl-5-(3-phenylpropyl)-1H-pyrrole-2-carbonyl]amino)-4-(trifluoromethyl)phenyl]cyclopropanecarboxylic acid] | < 0.3 | – |
| CC(C)c1cc(OCc2ccccc2)ccc1C(=O)Nc1cc([C@H]2C[C@H]2C(=O)O)ccc1C(F)(F)F [Example 28, (1R,2S)-2-[3-{[4-(Benzyloxy)-2-isopropylbenzoyl]amino}-4-(trifluoromethyl)phenyl]cyclopropanecarboxylic acid] | 4 | – |

From patent publication US12630510B2, “EP2 antagonist” (ONO PHARMACEUTICAL CO., LTD., priority 2019, dated 2026)
